Assay results reported in ChEMBL document CHEMBL1201862, “PubChem BioAssay data set” (2004).
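The compound was tested at five concentrations on cells cultured in 96-well plates, with a 48-hour exposure period. Abbreviation: GI50, concentration required for 50% inhibition of growth.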 Activity calls are given as the source filed them. No stated cut-off is given here; in the data, active = GI50 up to about 1.1 µM and inactive = higher.

How the values were obtained:
Experiment in all cases: growth of human tumour cells (NCI), 48 h
RXF 631 = test system: RXF 631
DMS-114 = test system: DMS-114
KM-20L2 = test system: KM-20L2
DMS-273 = test system: DMS-273
SNB-78 = test system: SNB-78
LXFL 529 = test system: LXFL 529
DLD-1 = test system: DLD-1
HOP-18 = test system: HOP-18
XF498 = test system: XF498

Compound | GI50 (RXF 631) | GI50 (DMS-114) | GI50 (KM-20L2) | GI50 (DMS-273) | GI50 (SNB-78) | GI50 (LXFL 529) | GI50 (DLD-1) | GI50 (HOP-18) | GI50 (XF498)
C[N+]1=c2c3cccc4cccc(c(=O)n2CC1)c43 | 24.2 µM (inactive) | 15.7 µM (inactive) | 15.7 µM (inactive) | 12.4 µM (inactive) | 14.2 µM (inactive) | 13.9 µM (inactive) | 16.1 µM (inactive) | 21.6 µM (inactive) | 
Cn1c2c(c3ccccc31)C1C(=O)N(c3ccccc3)C(=O)C1CC2 (centres undefined) | > 303 µM (inactive) | > 303 µM (inactive) | > 303 µM (inactive) | > 303 µM (inactive) |  | > 303 µM (inactive) | > 303 µM (inactive) |  | 
O=C1C2=C(c3ccccc31)C(c1cccc(Cl)c1)NC(S)=N2 (centres undefined) |  | > 100 µM (inactive) | > 100 µM (inactive) | 80.9 µM (inactive) |  | > 100 µM (inactive) | > 100 µM (inactive) |  | > 100 µM (inactive)
CCOc1ccc(/N=N/c2c(-c3ccccc3)nn(C(=O)CC(=O)Nc3cccc(C)c3)c2-c2ccccc2)cc1 | 27.5 µM (inactive) | 30.4 µM (inactive) | 85.5 µM (inactive) | > 100 µM (inactive) | > 100 µM (inactive) | > 100 µM (inactive) | 63.2 µM (inactive) | > 100 µM (inactive) | 95.1 µM (inactive)
CC1=C[C@H]2C[C@@]3(C)O[C@@H]([C@]4(C)CC[C@H]([C@@H](C)C(=O)O)OO4)CC3C(C)(C)[C@H]2CC1 (some centres undefined) |  | 1.56 µM (inactive) | 2.17 µM (inactive) | 0.526 µM (active) | 1.08 µM (active) | 0.612 µM (active) | 0.916 µM (active) |  | 0.0573 µM (active)
O=C(COc1ccc(Cl)cc1)N1N=C(c2ccc(Cl)cc2)CC1(O)c1ccccc1 (centres undefined) |  | 18.4 µM (inactive) | 15.4 µM (inactive) | 15.9 µM (inactive) | > 38.5 µM (inactive) | 15 µM (inactive) | 13 µM (inactive) | 39.2 µM (inactive) | 27.8 µM (inactive)
COc1ccccc1NC(=O)CC(=O)n1nc(-c2ccccc2)c(/N=N/c2ccccc2[N+](=O)[O-])c1-c1ccccc1 | > 100 µM (inactive) | 25.6 µM (inactive) | > 100 µM (inactive) | > 100 µM (inactive) | > 100 µM (inactive) | 83.2 µM (inactive) | 42.3 µM (inactive) | > 100 µM (inactive) | > 100 µM (inactive)
CC(C)CN(CC(C)C)C(=O)C1CCCC[C@@H]1C(=O)O (some centres undefined) | > 100 µM (inactive) | > 100 µM (inactive) | > 100 µM (inactive) | > 100 µM (inactive) | > 100 µM (inactive) | > 100 µM (inactive) | > 100 µM (inactive) | > 100 µM (inactive) | 
CC(C(=O)c1ccc(Cl)cc1)/C(=N/NC(=O)NN)C(=O)Nc1cccc(C(F)(F)F)c1 (centres undefined) | > 100 µM (inactive) | > 100 µM (inactive) | > 100 µM (inactive) | > 100 µM (inactive) | > 100 µM (inactive) | > 100 µM (inactive) | > 100 µM (inactive) | 56.5 µM (inactive) | > 100 µM (inactive)
O=C(O)Cc1cc(=O)[nH]c2c1C(=O)CCC2 |  |  | > 100 µM (inactive) | > 100 µM (inactive) |  | > 100 µM (inactive) | > 100 µM (inactive) | > 100 µM (inactive) | > 100 µM (inactive)
NS(=O)(=O)c1ccc(NC(=O)COC(=O)c2cccc3c(=O)c4ccccc4[nH]c23)cc1 | 33.1 µM (inactive) | 18.9 µM (inactive) | > 100 µM (inactive) | 37.2 µM (inactive) | 17.4 µM (inactive) | 7.93 µM (inactive) | 45 µM (inactive) | 20.1 µM (inactive) | 
COc1cc(OC)cc(C(=O)Cc2c(C(=O)c3ccccc3)c3ccccc3n2C(=O)c2ccccc2)c1 |  | 15.5 µM (inactive) | 50.6 µM (inactive) | 27.4 µM (inactive) | 38.3 µM (inactive) | 9.95 µM (inactive) | 20.3 µM (inactive) |  | 21.4 µM (inactive)
C[P+](C)(C)C | > 100 µM (inactive) | > 100 µM (inactive) | > 100 µM (inactive) |  | > 100 µM (inactive) | > 100 µM (inactive) | > 100 µM (inactive) | > 100 µM (inactive) | > 100 µM (inactive)
C[P+]1(Cc2ccccc2)CCCC1 |  | > 100 µM (inactive) | > 100 µM (inactive) | > 100 µM (inactive) | > 100 µM (inactive) | > 100 µM (inactive) | > 100 µM (inactive) | 63.7 µM (inactive) | < 0.01 µM (active)
COC(=O)CC(=O)NCC1=CCC(=O)CC1 |  | > 100 µM (inactive) |  | > 100 µM (inactive) | > 100 µM (inactive) | > 100 µM (inactive) | > 100 µM (inactive) |  | > 100 µM (inactive)
NC(=S)N/N=C(/CC(=O)c1ccc([N+](=O)[O-])cc1)C(=O)Nc1ncc([N+](=O)[O-])s1 | > 100 µM (inactive) | 68.1 µM (inactive) | > 100 µM (inactive) |  | > 100 µM (inactive) | 92.5 µM (inactive) | > 100 µM (inactive) |  | > 100 µM (inactive)
N#Cc1ccc(C2OCC3CC=CCC3CO2)cc1 (centres undefined) | 41.7 µM (inactive) | 61.7 µM (inactive) | > 100 µM (inactive) |  | > 100 µM (inactive) | 47.1 µM (inactive) | 55 µM (inactive) | > 100 µM (inactive) | > 100 µM (inactive)
C1CCN(c2nsc(N3CCCCC3)n2)CC1 | > 100 µM (inactive) | > 100 µM (inactive) | > 100 µM (inactive) | > 100 µM (inactive) | > 100 µM (inactive) | > 100 µM (inactive) | > 100 µM (inactive) | > 100 µM (inactive) | 
O=C(O)c1cc(=O)c2c([nH]c3ccccc32)s1 | > 100 µM (inactive) | > 100 µM (inactive) | > 100 µM (inactive) |  | > 100 µM (inactive) | > 100 µM (inactive) | > 100 µM (inactive) |  | > 100 µM (inactive)
CC1=C(C(=O)Nc2ccc([N+](=O)[O-])cc2)C(c2ccco2)C(C(=O)Nc2ccc([N+](=O)[O-])cc2)=C(C)N1 | 35.8 µM (inactive) | 5 µM (inactive) | 17.4 µM (inactive) |  | 11.9 µM (inactive) | 6.75 µM (inactive) | 9.68 µM (inactive) |  | 0.6 µM (active)
CCCCCCCCCCCCCC(=O)OCC1OC(=O)C(O)C1O (centres undefined) |  | > 100 µM (inactive) | > 100 µM (inactive) |  |  | > 100 µM (inactive) | > 100 µM (inactive) | > 100 µM (inactive) | > 100 µM (inactive)
O=C1C=CC(=O)N1Nc1ccc([N+](=O)[O-])cc1[N+](=O)[O-] |  | > 100 µM (inactive) | > 100 µM (inactive) | > 100 µM (inactive) | > 100 µM (inactive) | > 44.5 µM (inactive) | > 100 µM (inactive) |  | 
CC(C(=O)Oc1ccc2ccccc2c1-c1c(O)ccc2ccccc12)c1ccccc1 (centres undefined) | 17.2 µM (inactive) | 12.3 µM (inactive) |  | > 10 µM (inactive) | 15.4 µM (inactive) | 14.1 µM (inactive) |  |  | 14.2 µM (inactive)
CC(=O)C1C(=O)NC(=O)C1=O (centres undefined) |  | > 100 µM (inactive) | > 100 µM (inactive) | > 100 µM (inactive) | > 100 µM (inactive) | > 100 µM (inactive) |  | > 100 µM (inactive) | > 100 µM (inactive)
Clc1ccc2c(c1)[nH]c1c2nc2sccn21 | > 100 µM (inactive) | > 100 µM (inactive) | > 100 µM (inactive) | > 100 µM (inactive) | > 100 µM (inactive) | > 100 µM (inactive) | > 100 µM (inactive) | > 100 µM (inactive) | > 100 µM (inactive)
